From US10633397B2, “Substituted polycyclic pyridone derivatives and prodrugs thereof” (priority 2015, dated 2020)

Legend:
[1] = target: cap-dependent endonuclease (RNP fraction, PB1-PB2-PA complex) (Influenza A virus, UniProt P15659); assay: Measurement of cap-dependant endonuclease (CEN) inhibitory activity; type: biochemical; settings: RNP from A/WSN/33 virus, room temperature 60 minutes; read-out: CEN_IC50
influenza virus = assay: CPE inhibitory effect confirming assay; type: cell-based; settings: unidentified influenza virus, 72 h, read-out: CPE_EC50

Structure (SMILES) | IC50 [1] [nM] | EC50 (influenza virus) [nM]
O=C1c2c(O)c(=O)ccn2N([C@H]2c3ccccc3CSc3ccccc32)[C@@H]2COCCN12 [III-1] | 10.9 | 2.1
O=C1c2c(O)c(=O)ccn2N([C@H]2c3ccc(F)cc3CSc3ccccc32)[C@@H]2COCCN12 [III-3] | 2.22 | 3.39
O=C1c2c(O)c(=O)ccn2N([C@@H]2c3ccccc3SCc3c(Cl)cccc32)[C@@H]2COCCN12 [III-4] | 2.81 | 2.08
O=C1c2c(O)c(=O)ccn2N([C@H]2c3ccccc3CSc3ccccc32)[C@@H]2CSCCN12 [III-5] | 10.8 | 4.28
O=C1c2c(O)c(=O)ccn2N([C@H]2c3ccccc3CSc3ccccc32)[C@@H]2CC3(CCN12)OCCO3 [III-7] | 8.09 | 11.5
O=C1c2c(O)c(=O)ccn2N([C@H]2c3ccccc3CSc3ccccc32)[C@@H]2CCOCCN12 [III-8] | 2.81 | 7.18
O=C1c2c(O)c(=O)ccn2N([C@@H]2c3ccccc3SCc3c2ccc(F)c3F)[C@@H]2CSCCN12 [III-9] | 2.17 | 10.9
O=C1c2c(O)c(=O)ccn2N([C@@H]2c3ccccc3SCc3cccc(F)c32)[C@@H]2COCCN12 [III-10] | 4.05 | 3.46
O=C1c2c(O)c(=O)ccn2N([C@@H]2c3ccccc3SCc3c(F)cc(F)cc32)[C@@H]2COCCN12 [III-11] | 13.1 | 9.98
O=C1c2c(O)c(=O)ccn2N([C@H]2c3cc(F)c(F)cc3CSc3ccccc32)[C@@H]2COCCN12 [III-12] | 2.18 | 3.38
O=C1c2c(O)c(=O)ccn2N([C@@H]2c3cccc(F)c3SCc3cccc(F)c32)[C@@H]2COCCN12 [III-13] | 3.94 | 4
O=C1c2c(O)c(=O)ccn2N([C@H]2c3cc(F)ccc3CSc3ccccc32)[C@@H]2COCCN12 [III-14] | 15 | 15.7
O=C1c2c(O)c(=O)ccn2N([C@H]2c3cc(Cl)ccc3CSc3ccccc32)[C@@H]2COCCN12 [III-15] | 37.3 | 16.9
O=C1c2c(O)c(=O)ccn2N([C@@H]2c3cccc(Cl)c3SCc3cccc(F)c32)[C@@H]2COCCN12 [III-16] | 4.33 | 10.2
O=C1c2c(O)c(=O)ccn2N([C@@H]2c3ccccc3SCc3c2cccc3C(F)(F)F)[C@@H]2COCCN12 [III-17] | 3.89 | 8.14
Cc1cccc2c1[C@H](N1[C@@H]3COCCN3C(=O)c3c(O)c(=O)ccn31)c1ccccc1SC2 [III-18] |  | 3.28
O=C1c2c(O)c(=O)ccn2N([C@@H]2c3ccccc3SCc3c(F)cccc32)[C@@H]2COCCN12 [III-19] |  | 1.43
O=C1c2c(O)c(=O)ccn2N([C@@H]2c3ccccc3SCc3cccc(Cl)c32)[C@@H]2COCCN12 [III-20] |  | 4
O=C1c2c(O)c(=O)ccn2N([C@@H]2c3ccccc3SCc3c2ccc(F)c3F)[C@@H]2CC(F)(F)CCN12 [III-21] | 4.06 | 2.7

Structure (SMILES) | IC50 [1] [nM] | EC50 (influenza virus) [nM]
C[C@@H]1COC[C@@H]2N1C(=O)c1c(O)c(=O)ccn1N2[C@@H]1c2ccccc2SCc2c1ccc(F)c2F [III-22] | 3.46 | 3.07
O=C1c2c(O)c(=O)ccn2N([C@@H]2c3ccccc3SCc3c2ccc(F)c3F)[C@@H]2CC3(CCOCC3)CCN12 [III-23] | 1.48 | 0.86
O=C1c2c(O)c(=O)ccn2N([C@@H]2c3ccccc3SCc3cccc(O)c32)[C@@H]2COCCN12 [III-24] | 13.3 | 24.1
O=C1c2c(O)c(=O)ccn2N([C@H]2c3ccccc3CSc3ccccc32)[C@@H]2CCCCN12 [III-25] | 2.96 | 2.35
O=C1c2c(O)c(=O)ccn2N([C@@H]2c3ccccc3SCc3c2ccc(F)c3F)[C@@H]2C[C@@H](C(F)(F)F)CCN12 [III-26] | 1.63 | 3
O=C1c2c(O)c(=O)ccn2N([C@@H]2c3ccccc3SCc3c2cccc3C(F)(F)F)[C@@H]2CCCCN12 [III-27] | 4.19 | 3.61
C[C@H]1COC[C@@H]2N1C(=O)c1c(O)c(=O)ccn1N2[C@@H]1c2cccc(F)c2SCc2cccc(F)c21 [III-28] | 10.7 | 5.67
O=C1c2c(O)c(=O)ccn2N([C@@H]2c3ccccc3SCc3c2ccc(F)c3F)[C@@H]2CC3(CCN12)COC3 [III-29] | 0.87 | 0.66
C[C@H]1COC[C@@H]2N1C(=O)c1c(O)c(=O)ccn1N2[C@H]1c2ccc(F)cc2CSc2ccccc21 [III-30] |  | 3.01
C[C@H]1COC[C@@H]2N1C(=O)c1c(O)c(=O)ccn1N2[C@@H]1c2ccccc2SCc2cccc(F)c21 [III-31] | 18.5 | 3.17
C[C@H]1COC[C@@H]2N1C(=O)c1c(O)c(=O)ccn1N2[C@H]1c2ccccc2CSc2ccccc21 [III-32] | 27.6 | 7.23
CC1(C)CCN2C(=O)c3c(O)c(=O)ccn3N([C@@H]3c4ccccc4SCc4c3ccc(F)c4F)[C@@H]2C1 [III-33] |  | 2.36
O=C1c2c(O)c(=O)ccn2N([C@@H]2c3ccccc3SCc3c2ccc(F)c3F)[C@@H]2CCC(F)(F)CN12 [III-34] | 4.69 | 2.85
CC1(C)CC[C@@H]2N(C1)C(=O)c1c(O)c(=O)ccn1N2[C@@H]1c2ccccc2SCc2c1ccc(F)c2F [III-35] | 3.86 | 3
O=C1c2c(O)c(=O)ccn2N([C@@H]2c3ccccc3SCc3c2ccc(F)c3F)[C@@H]2CC3(CCN12)CC3 [III-36] |  | 2.45
O=C1c2c(O)c(=O)ccn2N([C@@H]2c3ccccc3SCc3c2ccc(F)c3F)[C@@H]2CO[C@H](C(F)(F)F)CN12 [III-37] | 4.24 | 3.43
O=C1c2c(O)c(=O)ccn2N([C@@H]2c3ccccc3SCc3c2ccc(F)c3F)[C@@H]2C[C@H](C(F)(F)F)CCN12 [III-38] | 8.26 | 4.04
CO[C@@H]1CCN2C(=O)c3c(O)c(=O)ccn3N([C@@H]3c4ccccc4SCc4c3ccc(F)c4F)[C@@H]2C1 [III-39] | 2.75 | 2.81
C[C@H]1CC[C@@H]2N(C1)C(=O)c1c(O)c(=O)ccn1N2[C@@H]1c2ccccc2SCc2c1ccc(F)c2F [III-40] | 2.99 | 2.95

Structure (SMILES) | IC50 [1] [nM] | EC50 (influenza virus) [nM]
C[C@@H]1CCN2C(=O)c3c(O)c(=O)ccn3N([C@@H]3c4ccccc4SCc4c3ccc(F)c4F)[C@@H]2C1 [III-41] | 2.1 | 2.17
C[C@@H]1CC[C@@H]2N(C1)C(=O)c1c(O)c(=O)ccn1N2[C@@H]1c2ccccc2SCc2c1ccc(F)c2F [III-42] | 3.93 | 2.64
O=C1c2c(O)c(=O)ccn2N([C@H]2c3ccc(F)cc3CSc3ccccc32)[C@@H]2C[C@H](C(F)(F)F)CCN12 [III-43] | 3.9 | 3.18
O=C1c2c(O)c(=O)ccn2N([C@@H]2c3ccccc3SCc3cccc(F)c32)[C@@H]2CC(F)(F)CCN12 [III-44] | 3.81 | 3.68
CC1(C)CCN2C(=O)c3c(O)c(=O)ccn3N([C@@H]3c4ccccc4SCc4cccc(F)c43)[C@@H]2C1 [III-45] | 1.63 | 3.07
O=C1c2c(O)c(=O)ccn2N([C@H]2c3ccc(F)cc3CSc3ccccc32)[C@@H]2CC(F)(F)CCN12 [III-46] | 2.91 | 3.18
CC1(C)CCN2C(=O)c3c(O)c(=O)ccn3N([C@H]3c4ccc(F)cc4CSc4ccccc43)[C@@H]2C1 [III-47] | 2.25 | 2.53
O=C1c2c(O)c(=O)ccn2N([C@@H]2c3ccccc3SCc3cccc(F)c32)[C@@H]2CC3(CCN12)CC3 [III-48] | 3.49 | 3.57
C[C@@H]1CCN2C(=O)c3c(O)c(=O)ccn3N([C@@H]3c4ccccc4SCc4cccc(F)c43)[C@@H]2C1 [III-49] | 6.79 | 4.17
C[C@@H]1CCN2C(=O)c3c(O)c(=O)ccn3N([C@H]3c4ccc(F)cc4CSc4ccccc43)[C@@H]2C1 [III-50] | 2.55 | 4.36
C[C@H]1CN2C(=O)c3c(O)c(=O)ccn3N([C@@H]3c4ccccc4SCc4c3ccc(F)c4F)[C@@H]2CO1 [III-51] | 2.22 | 2.58
C[C@H]1CN2C(=O)c3c(O)c(=O)ccn3N([C@H]3c4ccc(F)cc4CSc4ccccc43)[C@@H]2CO1 [III-52] | 3.62 | 3.28
O=C1c2c(O)c(=O)ccn2N([C@@H]2c3ccccc3SCc3cccc(F)c32)[C@@H]2CCCCN12 [III-53] | 2.46 | 3
O=C1c2c(O)c(=O)ccn2N([C@H]2c3ccc(F)cc3CSc3ccccc32)[C@@H]2CCCCN12 [III-54] |  | 1.18
O=C1c2c(O)c(=O)ccn2N([C@H]2c3ccc(F)cc3CSc3ccccc32)[C@@H]2CC3(CCN12)CC3 [III-55] | 2.13 | 3.45
O=C1c2c(O)c(=O)ccn2N(C2c3ccccc3CCc3ccccc32)[C@@H]2COCCN12 [III-56] | 6.64 | 4.99
O=C1c2c(O)c(=O)ccn2N([C@H]2c3ccc(F)cc3CSc3ccccc32)[C@@H]2C[C@@H](C(F)(F)F)CCN12 [III-57] | 4.27 | 3.47
C[C@@H]1CC[C@@H]2N(C1)C(=O)c1c(O)c(=O)ccn1N2[C@H]1c2ccc(F)cc2CSc2ccccc21 [III-58] | 2.65 | 3.13
O=C1c2c(O)c(=O)ccn2N([C@@H]2c3ccccc3SCc3c2ccc(F)c3F)[C@@H]2CCCCN12 [III-59] | 0.57 | 3.11
